Data published in US9060519B2, “Insecticidally active pyridyl-thiazole and pyridyl-thiadiazole derivatives” (Syngenta Participations AG, priority 2011, dated 2015).

Test system: Plutella xylostella (diamond back moth)
Assay: Plutella xylostella (larvicide, feeding/residual contact activity, preventive)
Format: in vivo
Conditions: 200 ppm; artificial diet in MTP, L2 larvae; larval mortality, antifeedant, growth regulation after 5 days
Protocol: Plutella xylostella (Diamond Back Moth) (Larvicide, Feeding/Residual Contact Activity, Preventive) 24-well microtiter plate (MTP) with artificial diet was treated with test solutions by pipetting. After drying, the MTP's were infested with larvae (L2)(10-15 per well). After an incubation period of 5 days, samples were checked for larval mortality, antifeedant and growth regulation.

Row | SMILES | activity
1 | C/C(=N\Oc1ccc(C#N)cn1)c1sc(-c2cccnc2)nc1C [Compound 1.012] | over 80%

Test system: Myzus persicae (green peach aphid)
Assay: Activity against Myzus persicae (mixed population, feeding/residual contact activity, preventive)
Format: in vivo
Conditions: foliar, 144 h, sunflower leaf discs sprayed, aphids of mixed ages, mortality after 6 days
Protocol: Activity against Myzus persicae (Green Peach Aphid)
(Mixed Population, Feeding/Residual Contact Activity, Preventive)
Sunflower leaf discs were placed on agar in a 24-well microtiter plate and sprayed with test solutions. After drying, the leaf discs were infested with an aphid population of mixed ages. After an incubation period of 6 days, samples were checked for mortality.

Row | SMILES | pest or weed control at 200 ppm
2 | C/C(=N\Oc1cc(Cl)cnc1Cl)c1sc(-c2cccnc2)nc1C [Compound 1.008] | > 80%
3 | COc1cc(OC)nc(O/N=C(\C)c2sc(-c3cccnc3)nc2C)n1 [Compound 1.009] | > 80%
4 | C/C(=N\Oc1nc(C)cc(C)n1)c1sc(-c2cccnc2)nc1C [Compound 1.010] | > 80%
5 | C/C(=N\Oc1ncccn1)c1sc(-c2cccnc2)nc1C [Compound 1.013] | > 80%
6 | COc1cnc(O/N=C(\C)c2sc(-c3cccnc3)nc2C)nc1 [Compound 1.014] | > 80%
7 | C/C(=N\Oc1nccc(C)n1)c1sc(-c2cccnc2)nc1C [Compound 1.029] | > 80%
8 | COCc1cc(C)nc(O/N=C(\C)c2sc(-c3cccnc3)nc2C)n1 [Compound 1.032] | > 80%
9 | C/C(=N\Oc1ncccn1)c1cnc(-c2cccnc2)s1 [Compound 1.041, 1-[2-(3-pyridyl)thiazol-5-yl]-N-pyrimidin-2-yloxy-ethanimine] | > 80%
10 | CC/C(=N\Oc1nc(C)cc(C)n1)c1sc(-c2cccnc2)nc1Cl [Compound 1.047] | > 80%
11 | CC/C(=N\Oc1ncccn1)c1sc(-c2cccnc2)nc1Cl [Compound 1.048] | > 80%
12 | CC/C(=N\Oc1nc(OC)cc(OC)n1)c1sc(-c2cccnc2)nc1Cl [Compound 1.049] | > 80%
13 | C/C(=N\Oc1ncccn1)c1sc(-c2cccnc2)nc1Cl [Compound 1.050] | > 80%
14 | C/C(=N\Oc1ncccc1SC(C)C)c1sc(-c2cccnc2)nc1C [Compound 1.056] | > 80%
15 | C/C(=N\Oc1nc(C)cc(C)n1)c1sc(-c2cccnc2)nc1Cl [Compound 1.057] | > 80%
16 | COc1cc(OC)nc(O/N=C(\C)c2sc(-c3cccnc3)nc2Cl)n1 [Compound 1.058, 1-[4-chloro-2-(3-pyridyl)thiazol-5-yl]-N-(4,6-dimethoxypyrimidin-2-yl)oxy-ethanimine] | > 80%
17 | COc1nc(OC)nc(O/N=C(\C)c2sc(-c3cccnc3)nc2C)n1 [Compound 1.060] | > 80%

Test system: not given
Assay: not given
Conditions: not given

Row | SMILES | melting point
18 | C/C(=N\Oc1ccc2nnc(C)n2n1)c1sc(-c2cccnc2)nc1C [Compound 1.001] | 200 to 202 °C
19 | C#CCOc1ccc(O/N=C(\C)c2sc(-c3cccnc3)nc2C)nn1 [Compound 1.002] | 152 to 154 °C
20 | COc1ccc(Cl)c(-c2ccc(O/N=C(\C)c3sc(-c4cccnc4)nc3C)nn2)c1 [Compound 1.003] | 169 to 171 °C
21 | C/C(=N\Oc1ccc(C)nn1)c1sc(-c2cccnc2)nc1C [Compound 1.004] | 179 to 181 °C
22 | COc1ccc(O/N=C(\C)c2sc(-c3cccnc3)nc2C)nn1 [Compound 1.005] | 167 to 169 °C
23 | C/C(=N\Oc1ncccc1Cl)c1sc(-c2cccnc2)nc1C [Compound 1.007] | 126 to 128 °C
24 | C/C(=N\Oc1ncc(C(F)(F)F)cn1)c1sc(-c2cccnc2)nc1C [Compound 1.015] | 165 to 166 °C
25 | C/C(=N\Oc1ncc([N+](=O)[O-])cn1)c1sc(-c2cccnc2)nc1C [Compound 1.018] | 174 to 176 °C
26 | COc1cc(OC)nc(O/N=C(/c2sc(-c3cccnc3)nc2Cl)C(F)(F)F)n1 [Compound 1.043] | 109 to 111 °C
27 | Clc1nc(-c2cccnc2)sc1/C(=N/Oc1ncccn1)C1CC1 [Compound 1.044] | 127 to 130 °C
28 | Cc1cc(C)nc(O/N=C(/c2sc(-c3cccnc3)nc2Cl)C2CC2)n1 [Compound 1.045] | 53 to 55 °C
29 | CSc1cc(F)cnc1O/N=C(\C)c1sc(-c2cccnc2)nc1C [Compound 1.055] | 149 to 151 °C
